What was measured:
human GIPR [1] = target: T1, human GIPR (Homo sapiens, UniProt P48546); assay: β-arrestin-2 recruitment (NanoBiT), human GIPR; format: cell-based; conditions: Table 17
T1 sequence (P48546 22-466): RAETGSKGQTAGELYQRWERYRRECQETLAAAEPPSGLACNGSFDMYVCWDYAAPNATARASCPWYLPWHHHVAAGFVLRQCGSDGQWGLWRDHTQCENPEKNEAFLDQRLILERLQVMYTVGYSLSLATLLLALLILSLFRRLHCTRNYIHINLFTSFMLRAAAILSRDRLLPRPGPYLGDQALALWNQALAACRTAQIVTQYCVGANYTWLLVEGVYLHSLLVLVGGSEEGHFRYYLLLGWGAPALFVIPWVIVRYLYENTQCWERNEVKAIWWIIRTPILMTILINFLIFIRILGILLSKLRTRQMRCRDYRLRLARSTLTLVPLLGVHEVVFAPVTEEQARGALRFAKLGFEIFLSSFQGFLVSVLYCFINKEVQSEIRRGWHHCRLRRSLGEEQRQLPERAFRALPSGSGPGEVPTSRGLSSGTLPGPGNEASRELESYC
Experimental: To measure GLP-1R and GIPR-mediated β-arrestin recruitment, we utilized Promega's NanoBiT® technology or NanoLuc® Binary Technology. The NanoLuc luciferase is split into two subunits, called LgBiT and SmBIT, which are expressed in HEK293 cells as fusion proteins at the C-terminus of GLP-IR or GIPR and the N-terminus of β-arrestin-2. […] The next day, the media was removed and replaced with […] 1:100 dilution of Nano-Glo® Live Cell Substrate in Opti-MEM™ and equilibrated to room temperature for ten minutes. Background luminescence was measured before 10 nL compound was added using an ECHO Acoustic Liquid Handler.
To measure GLP-1R and GIPR-mediated β-arrestin recruitment, Promega's NanoBiT® technology or NanoLuc® Binary Technology were utilized. Both allow for the detection and quantification of protein: protein interactions in live cells (Samms et al., Trends Endocrinol Metab 31:410-21). The NanoLuc luciferase is split into two subunits, called LgBiT and SmBIT, which are expressed in HEK293 cells as fusion proteins at the C-terminus of GLP-1R or GIPR and the N-terminus of β-arrestin-2, respectively. […] Background luminescence was measured before 10 nL compound was added using an ECHO Acoustic Liquid Handler. Luminescence was measured at 1.5-minute intervals for 30 minutes.

clinical = assay: clinical; design: species or system human; conditions: in vivo
Experimental: Blood samples, pre- and post-dose, were collected during the in-house treatment periods for the assessment of PD and PK endpoints. […] In addition, fasting plasma glucose (FPG), insulin, C-peptide, GCG and HOMA-IR after ≥10 hours overnight fast and VAS assessments were done on Days 1, 2 and 3.
In participants with T2DM, blood samples were collected on Days 2, 3 and 4 for assessing PK profiles and for PD profiles, on Days 2 and 3. Fasting plasma glucose (FPG), insulin, C-peptide, GCG and HOMA-IR after ≥10 hours overnight fast on Days 1, 2, 3 and 4. A mixed meal tolerance test (MMTT) and prospective meal consumption (ad libitum meal) was administered on Day 4. Appetite and food intake were assessed using a VAS questionnaire (appetite, hunger and satiety) on Days 1, 2, 3 and 4.

human GIPR [2] = target: T1, human GIPR; assay: cAMP accumulation, SNAP-human GIPR CHO-K1 cells

With `CCCCCCCCCCCCCCCC(=O)N[C@@H](CCC(=O)NCCCC[C@H](NC(=O)[C@H](CO)NC(=O)[C@@H]1CCCN1C(=O)[C@@H]1CCCN1C(=O)[C@@H]1CCCN1C(=O)[C@H](C)NC(=O)CNC(=O)[C@H](CO)NC(=O)[C@H](CO)NC(=O)[C@@H]1CCCN1C(=O)CNC(=O)CNC(=O)[C@H](C)NC(=O)[C@H](CC(C)C)NC(=O)[C@H](CC(C)C)NC(=O)[C@H](Cc1c[nH]c2ccccc12)NC(=O)[C@H](CC(N)=O)NC(=O)[C@@H](NC(=O)[C@H](Cc1ccccc1)NC(=O)[C@H](CCC(=O)O)NC(=O)C(C)(C)NC(=O)[C@H](C)NC(=O)[C@H](C)NC(=O)[C@H](CCC(N)=O)NC(=O)[C@H](CCCCN)NC(=O)[C@H](CC(=O)O)NC(=O)[C@H](CC(C)C)NC(=O)[C@H](Cc1ccc(O)cc1)NC(=O)[C@@H](NC(=O)[C@H](CO)NC(=O)[C@H](Cc1ccc(O)cc1)NC(=O)[C@H](CC(=O)O)NC(=O)[C@H](CO)NC(=O)[C@@H](NC(=O)[C@H](Cc1ccccc1)NC(=O)[C@@H](NC(=O)CNC(=O)[C@H](CCC(=O)O)NC(=O)CSCC(=O)NCCN1CCCCC1=O)[C@@H](C)O)[C@@H](C)O)[C@@H](C)CC)C(C)C)C(N)=O)C(=O)O` [CT-868] as the compound, how does the EC50 (human GIPR [1]; read-out: hGIPR β-arrestin-2 EC50) read?
The EC50 was 13 nM.

And the Emax (human GIPR [1]; read-out: hGIPR β-arrestin-2 % Emax)?
Its Emax is 1%.

What about the “incremental AUC” value (clinical; human) of the same compound?
The value was 128,267 ng/ml*min.

What about the “terminal half-life (t1/2)” value (clinical; human) of the same compound?
The value was 1,190 minutes.

And the AUC (clinical; human, AUC)?
Its AUC is 3490 ng·h/mL.

And the AUC (clinical; human, AUC (0-tau))?
Its AUC is 3860 ng·h/mL.

What about the Cmax (clinical; human, Cmax) of the same compound?
The Cmax was 247 ng/mL.

What about the Cmax (clinical; human, Maximum Concentration of CT-868 (Cmax)) of the same compound?
The Cmax was 274 ng/mL.

And the Tmax (clinical; human, Time of Maximum Concentration of CT-868 (Tmax))?
Its Tmax is 10.9 h.

What about the Tmax (clinical; human, Tmax) of the same compound?
Its Tmax is 12.2 h.

And the AUC (clinical; human, incremental AUC)?
The AUC was 2260 ng·h/mL.

And the half-life (clinical; human, terminal half-life)?
Its half-life is about 20 h.

What about the half-life (clinical; human, terminal half-life (t1/2)) of the same compound?
Its half-life is 19.8 h.

And the “time at which maximum plasma concentrations were attained post-dose” value (clinical)?
The value was 11 to 12 h.

And the Emax (human GIPR [2]; CHO-K1, read-out: hGIPR cAMP (-alb) % Emax)?
Its Emax is 41%.

What about the EC50 (human GIPR [2]; potency activating cAMP at human GIPR, value of b126) of the same compound?
Its EC50 is about 3.3 nM.
